Settings: Liquid; for viscosity: Capillary tube (Ostwald / Ubbelohde) method; for mass density: Vibrating tube method

CCCCCCCCCC [decane]
Settings	mass density [kg/m3]	viscosity [mPa·s]
303.15 K, 2001 kPa	724.01	0.8079
303.15 K, 3991 kPa	725.58	0.8268
303.15 K, 6003 kPa	727.19	0.8461
303.15 K, 8001 kPa	728.75	0.8655
303.15 K, 9992 kPa	730.27	0.885
303.15 K, 13006 kPa	732.5	0.915
303.15 K, 16005 kPa	734.69	0.9445
303.15 K, 18998 kPa	736.88	0.9734
303.15 K, 21997 kPa	739	1.004
303.15 K, 25008 kPa	741.03	1.035
303.15 K, 27989 kPa	743.02	1.066
303.15 K, 29988 kPa	744.3	1.086
323.15 K, 1995 kPa	708.76	0.6249
323.15 K, 4003 kPa	710.68	0.6386
323.15 K, 5997 kPa	712.57	0.6529
323.15 K, 8005 kPa	714.3	0.6676
323.15 K, 10006 kPa	715.96	0.6824
323.15 K, 12995 kPa	718.36	0.7045
323.15 K, 15989 kPa	720.73	0.7274
323.15 K, 18994 kPa	723	0.7511
323.15 K, 21997 kPa	725.28	0.774
323.15 K, 25006 kPa	727.5	0.7981
323.15 K, 28004 kPa	729.62	0.822
323.15 K, 30005 kPa	731.03	0.8382
353.15 K, 5998 kPa	689.96	0.4714
353.15 K, 7997 kPa	691.97	0.4825
353.15 K, 22010 kPa	704.95	0.5612
353.16 K, 2000 kPa	685.65	0.448
353.16 K, 3999 kPa	687.9	0.4596
353.16 K, 9991 kPa	694.06	0.494
353.16 K, 13003 kPa	697.01	0.5106
353.16 K, 15994 kPa	699.86	0.5272
353.16 K, 19005 kPa	702.43	0.5442
353.16 K, 25000 kPa	707.44	0.5788
353.16 K, 27992 kPa	710.01	0.5967
353.16 K, 29995 kPa	711.67	0.6086

CCCCCCCCCCCC [dodecane]
Settings	mass density [kg/m3]	viscosity [mPa·s]
293.21 K, 2007 kPa	750.58	1.522
293.21 K, 3977 kPa	752.18	1.56
293.21 K, 5979 kPa	753.71	1.599
293.21 K, 7982 kPa	755.06	1.639
293.21 K, 12987 kPa	758.27	1.74
293.21 K, 29985 kPa	768.5	2.106
293.22 K, 9987 kPa	756.38	1.679
293.22 K, 15986 kPa	760.07	1.801
293.22 K, 18994 kPa	761.82	1.865
293.22 K, 21995 kPa	763.63	1.929
293.22 K, 24987 kPa	765.5	1.994
293.22 K, 27987 kPa	767.37	2.061
313.1 K, 1990 kPa	736.16	1.089
313.1 K, 4017 kPa	737.72	1.116
313.1 K, 6016 kPa	739.14	1.143
313.1 K, 8014 kPa	740.64	1.171
313.1 K, 10011 kPa	742.11	1.199
313.1 K, 13007 kPa	744.26	1.241
313.1 K, 16011 kPa	746.36	1.283
313.1 K, 19017 kPa	748.61	1.326
313.1 K, 22017 kPa	750.69	1.37
313.1 K, 25019 kPa	752.63	1.414
313.1 K, 28017 kPa	754.52	1.458
313.1 K, 30020 kPa	755.75	1.489
333 K, 3976 kPa	723.61	0.8436
333.01 K, 2024 kPa	721.82	0.823
333.01 K, 5981 kPa	725.32	0.8643
333.01 K, 7987 kPa	726.99	0.885
333.01 K, 10019 kPa	728.35	0.9059
333.01 K, 13016 kPa	730.73	0.9374
333.01 K, 16014 kPa	733.04	0.9691
333.01 K, 19018 kPa	735.29	1.001
333.01 K, 22015 kPa	737.46	1.033
333.01 K, 25018 kPa	739.58	1.066
333.01 K, 28015 kPa	741.65	1.099
333.01 K, 30024 kPa	742.99	1.121
353.12 K, 2000 kPa	706.86	0.6433
353.12 K, 3991 kPa	708.83	0.6598
353.12 K, 5996 kPa	710.75	0.6763
353.12 K, 8009 kPa	712.81	0.6929
353.12 K, 10014 kPa	714.63	0.7095
353.12 K, 13006 kPa	717.28	0.7344
353.12 K, 16007 kPa	719.83	0.7594
353.12 K, 19003 kPa	722.16	0.7845
353.12 K, 22006 kPa	724.55	0.8098
353.12 K, 25008 kPa	726.87	0.8352
353.12 K, 28011 kPa	729.13	0.8607
353.12 K, 30007 kPa	730.59	0.8778

CCCCCCCCC [nonane]
Settings	mass density [kg/m3]	viscosity [mPa·s]
293.21 K, 1993 kPa	719.36	0.7109
293.21 K, 3991 kPa	721.16	0.7266
293.21 K, 5993 kPa	722.88	0.7426
293.21 K, 7996 kPa	724.42	0.7587
293.21 K, 10001 kPa	725.92	0.775
293.21 K, 13001 kPa	728	0.8
293.21 K, 19004 kPa	732.11	0.8517
293.21 K, 22005 kPa	734.14	0.8782
293.21 K, 24997 kPa	736.13	0.9052
293.21 K, 27997 kPa	738.31	0.9329
293.21 K, 29995 kPa	739.58	0.9516
293.22 K, 16000 kPa	730.02	0.8254
313.1 K, 19007 kPa	718.18	0.6634
313.1 K, 22007 kPa	720.52	0.6827
313.1 K, 25009 kPa	722.7	0.7023
313.1 K, 28007 kPa	724.82	0.7222
313.1 K, 30010 kPa	726.21	0.7357
313.11 K, 2000 kPa	704.08	0.559
313.11 K, 4007 kPa	705.88	0.5709
313.11 K, 6006 kPa	707.62	0.5829
313.11 K, 8004 kPa	709.24	0.595
313.11 K, 10007 kPa	710.92	0.6072
313.11 K, 13003 kPa	713.28	0.6256
313.11 K, 16007 kPa	715.76	0.6444
333 K, 2014 kPa	688.53	0.4535
333 K, 3990 kPa	690.6	0.4631
333 K, 5995 kPa	692.58	0.4727
333.01 K, 8001 kPa	694.51	0.4824
333.01 K, 10007 kPa	696.11	0.4921
333.01 K, 13004 kPa	698.84	0.5067
333.01 K, 16002 kPa	701.48	0.5215
333.01 K, 19006 kPa	704.03	0.5364
333.01 K, 22003 kPa	706.5	0.5515
333.01 K, 25006 kPa	708.9	0.5667
333.01 K, 28003 kPa	711.23	0.5821
333.01 K, 30012 kPa	712.74	0.5925
353.12 K, 2004 kPa	672.27	0.3733
353.12 K, 3995 kPa	674.59	0.3814
353.12 K, 6000 kPa	676.83	0.3894
353.12 K, 8005 kPa	679.1	0.3975
353.12 K, 10010 kPa	681.31	0.4056
353.12 K, 13002 kPa	684.37	0.4178
353.12 K, 16003 kPa	687.3	0.43
353.12 K, 18999 kPa	689.99	0.4422
353.12 K, 22002 kPa	692.72	0.4546
353.12 K, 25004 kPa	695.35	0.467
353.12 K, 28007 kPa	697.9	0.4795
353.12 K, 30003 kPa	699.56	0.4879
